How the values were obtained:
[1] = test system: spheroidal aggregates of EMT6 murine breast cancer cells; assay: Test (c): growth inhibition of spheroidal aggregates of EMT6 cells in oxygenated culture medium; assay type: cell-based; conditions: Mus musculus, 2 hours treatment, stasis of spheroid growth during 2-3 weeks, read-out: stasis ED50
Protocol: (c) An in vitro assay which determines the ability of a test compound to inhibit the growth in an oxygenated culture medium of spheroidal aggregates (˜400 microns in diameter) of EMT6 murine breast cancer cells. As the oxygen diffusion distance through tissue is approximately 120-150 microns, such spheroids have a chronically hypoxic central population of cells and a well oxygenated outer layer of cells. The multicellular spheroids were treated with test compounds for 2 hours as a well oxygenated suspension culture. The spheroids were subsequently washed free of test compound and selected spheroids were transferred to static culture so that the effect of treatment on volume growth could be measured. […]
EMT6 murine breast cells (obtained from P. R. Twentyman, MRC Oncology and Radiotherapeutics Unit, Cambridge, UK) were harvested from exponentially growing monolayer cultures and approximately 1×10^6 cells were used to inoculate a 500 ml spinner culture vessel containing Eagles minimal essential medium (200 ml; supplemented with 10% foetal calf serum, glutamate, non-essential amino acids, penicillin and streptomycin). […] The area of each spheroid was measured using an image analyser and the 24-well plates were transferred to a CO2 incubator at 37° C. The spheroids were then re-measured every 2-3 days for up to 21 days, with fresh culture medium (250 μl) being added to each well every 3 days. […]

[2] = test system: T18 murine breast tumours; assay: Test (d): in vivo growth delay of T18 tumours; set-up: species or system Balb/c mice; conditions: single dose of approximately 50 mg/kg intraperitoneally
Source text: (d) An in vivo assay in a group of Balb/c mice which determines the ability of a test compound to delay the growth of T18 murine breast tumours. The detailed methodology was as follows:
T18 murine breast tumour tissue was routinely maintained by animal to animal passage. To prepare a batch of tumours for an experiment, tumour tissue was removed from several donor Balb/c mice and placed in saline. Outer tissue was removed and healthy looking regions of tumour were cut into approximately 1 mm pieces and implanted subcutaneously by trocar into the left flanks of anaesthetised female Balb/c mice. After 2-3 weeks, most of the implants had grown to approximately 8 mm in diameter. The animals were placed randomly into groups of 6-7, rejecting any with very large, or small, tumours. Each test compound was dissolved in DMSO and diluted with Cremophor EL followed by saline, to give a 1:1:3 mixture of DMSO, Cremophor EL and saline. Each test compound was administered by the intraperitoneal route as a single bolus dose (0.1 ml per 10 g body weight of each animal). Control animals received vehicle alone. All mice were weighed daily and the dimensions (length and width) of each tumour were measured every 2-3 days using vernier calipers. […] Growth curves were constructed and the effect of treatment was assessed using a growth delay endpoint.

[3] = test system: T18 murine breast cancer cells; assay: Test (b): growth inhibition of T18 cells in culture under oxic conditions (MTT endpoint); assay type: cell-based; conditions: Mus musculus, 2 hours treatment, 90% air and 10% CO2, grown on for 6 days
Protocol: (b) An in vitro assay which determines the ability of a test compound to inhibit the growth of T18 murine breast cancer cells in cell culture under oxic conditions. The cells were grown in monolayer in 96 well plates and treated with compounds for 2 hours under an atmosphere of 90% air and 10% CO2. The cells were then grown on for 6 days at which time the extent of proliferation was assessed using a 3-(4,5-dimethylthiazol-2-yl)-2,5-diphenyltetrazolium bromide (MTT) endpoint. The test is similar to that described in J. Immunological Methods, 1983, 65, 55-63. The detailed methodology was as follows.
T18 murine breast tumour cells (derived from a spontaneous mammary tumour in the Balb/c mouse colony at Zeneca Pharmaceuticals, Mereside, Macclesfield, UK) were harvested from an exponentially growing monolayer culture. The cells were counted, diluted in RPMI 1640 culture medium (Gibco BRL, Life Technologies, Paisley, UK; supplemented with 15% foetal calf serum, glutamine, pyruvate, penicillin and streptomycin), and transferred to 96 well plates at 500 cells per 50 μl per well. […] The supernatant culture medium containing excess MTT was removed and DMSO (100 μl) was added to solubilise the formazan, the concentration of which was measured by determining the optical density at 540 nm. […]

COCCC1=C(C)C(=O)C(C)=C(C(C)(C)CC(=O)Oc2ccc(N(CCCl)CCCl)cc2)C1=O [Example 2, 4-[bis(2-chloroethyl)amino]phenyl 3-[2-(2-methoxyethyl)-3,5-dimethyl-1,4-benzoquinonyl]-3-methylbutyrate]
EC50 [1]: ~6 µM | growth delay [2]: approximately 12 days | IC50 [3]: 4.8 µM

Source: US6346633B1, “Anti-tumuor agents” (AstraZeneca AB, priority 1998, dated 2002)
